Data taken from patent US8881823B2, “Environmentally friendly low temperature breaker systems and related methods” (Halliburton Energy Services, Inc., priority 2011, dated 2014).
Read-outs that look alike come from different tables or passages of the source.

Assays:
[1] = Initial and over time miscibility and pH in potassium formate brines; type: physicochemical; settings: for After Static Aging: overnight 150° F.; for pH Final: static 16 hrs @ 150° F.
Description: Completion breaker solutions were to be tested at 5%, 10%, and 20% by volume concentrations in each of the brines. The initial miscibility and the miscibility after static aging overnight at 150° F. were observed. Also, the pH of the final mixes was measured. The different concentrations of the breaker solutions were prepared with fresh water and filtered through a 1.6 μm glass fiber filter prior to testing.
The tests were run by adding the appropriate volume of the test breaker (5%, 10%, or 20% by volume) to the volume of the test brine needed to total 100 ml in a 4 ounce jar, sealing it, and swirling to mix the components. Observation was noted of the compatibility of the components.

[2] = Miscibility and pH of breaker systems in fresh water; type: physicochemical; settings: breaker system in fresh water, 150° F. for 16 hours
Description: Several chelating agents and acids (breaker systems) were tested for their calcium carbonate dissolving capacity and miscibility in fresh water. Tests of the breaker systems were performed by adding a known volume of breaker system to a volume of brine needed to fill 100 ml in a jar. The jars were then sealed and swirled to mix the components. Samples containing 5%, 10%, or 20% v/v of chelating agents and acids were prepared. The jars were then placed in a static oven at 150° F. for 16 hours. Afterwards, miscibility of the components was observed and the pH of each mixture was tabulated.

[3] = Calcite dissolving capacity of breaker systems; type: physicochemical; settings: 2.5 g BARACARB 5 in 50 mL test fluid, one hour
Description: The calcite dissolving capacity of each breaker system was determined in the following manner. A known amount of a technical grade calcium carbonate (commercially available from Halliburton under the tradename “BARACARB 5”) was dried in an oven for 2 hours. […] The solution was subsequently filtered with a 1 micron fiber glass filter paper.

[4] = Compatibility and dissolution ability in potassium formate brine; type: physicochemical
Description: In this Example, the compatibility and dissolution ability of various breaker systems with formate brine were evaluated. […] For each sample a 20% v/v breaker sample was prepared in three different concentrations of potassium formate brine (11 ppg, 12 ppg, and 13 ppg).
To determine the compatibility of each breaker with the potassium formate brine, each sample was checked for the formation of formate salts. This precipitation was indicative of an incompatibility of the breaker system with the formate brine. Samples in which precipitation was observed are noted with an asterisk (*).
The dissolution ability of the breaker systems was also tested in the various concentration of formate brine. […] The jars were then dried in an 90° F. oven for 16 hours. After the elapsed time, the amount of carbonate that remained was weighed and tabulated. The difference in weight represented the amount of carbonate that was dissolved by the breaker system and/or precipitated out as a result of being incompatible with the formate brine.

[5] = Biodegradability, OECD 301 D Closed Bottle Test
From the text: The same protocol was used to test EDTA (“DISSOLVINE AM3-40” available from AkzoNobel Corporate) and sodium acetate.

[6] = Chemical oxygen demand (COD) test; type: physicochemical
From the text: Table 2 compares the biodegradability of GLDA and EDTA and summarizes chemical oxygen demand (COD) tests which indirectly measures the amount of organic compounds in water.

[7] = 5% by volume, potassium formate brine 11.0 lb/gal
[8] = 5% by volume, potassium formate brine 12.0 lb/gal
[9] = 5% by volume, potassium formate brine 13.0 lb/gal
[10] = 10% by volume, potassium formate brine 11.0 lb/gal
[11] = 10% by volume, potassium formate brine 12.0 lb/gal
[12] = 10% by volume, potassium formate brine 13.0 lb/gal
[13] = 15% (so in the source), potassium formate brine 13.0 lb/gal
[14] = 20% by volume, potassium formate brine 11.0 lb/gal
[15] = 20% by volume, potassium formate brine 12.0 lb/gal

Q: With `N.N.O=C(O)CN(CCN(CC(=O)O)CC(=O)O)CC(=O)O` [EDTA ammonium salt, reference compound] as the compound, how does the “Initial Observation” value [1, 7] read?
A: Clear, totally soluble

Q: What about the “After Static Aging” value [1, 7] of the same compound?
A: Clear, totally soluble †

Q: And the “pH Final” value [1, 7]?
A: 9.6

Q: What about the “Initial Observation” value [1, 8] of the same compound?
A: Clear, totally soluble

Q: What about the “After Static Aging” value [1, 8] of the same compound?
A: Clear, totally soluble †

Q: What about the “pH Final” value [1, 8] of the same compound?
A: 10.8

Q: What about the “Initial Observation” value [1, 9] of the same compound?
A: Clear, totally soluble

Q: What about the “After Static Aging” value [1, 9] of the same compound?
A: Clear, totally soluble †

Q: And the “pH Final” value [1, 9]?
A: 11.4

Q: And the “Initial Observation” value [1, 10]?
A: Clear, totally soluble

Q: What about the “After Static Aging” value [1, 10] of the same compound?
A: Clear, totally soluble †

Q: What about the “pH Final” value [1, 10] of the same compound?
A: 8.6

Q: What about the “Initial Observation” value [1, 11] of the same compound?
A: Clear, totally soluble

Q: What about the “After Static Aging” value [1, 11] of the same compound?
A: Clear, totally soluble †

Q: What about the “pH Final” value [1, 11] of the same compound?
A: 9.8

Q: And the “Initial Observation” value [1, 12]?
A: Clear, totally soluble

Q: And the “After Static Aging” value [1, 12]?
A: Clear, totally soluble †

Q: What about the “pH Final” value [1, 12] of the same compound?
A: 10.7

Q: And the “Initial Observation” value [1, 13]?
A: Clear, totally soluble

Q: What about the “After Static Aging” value [1, 13] of the same compound?
A: Clear, totally soluble †

Q: What about the “pH Final” value [1, 13] of the same compound?
A: 9.9

Q: And the “Initial Observation” value [1, 14]?
A: Clear, totally soluble

Q: What about the “After Static Aging” value [1, 14] of the same compound?
A: Clear, totally soluble †

Q: And the “pH Final” value [1, 14]?
A: 7.0

Q: And the “Initial Observation” value [1, 15]?
A: Clear, totally soluble

Q: And the “After Static Aging” value [1, 15]?
A: Clear, totally soluble †

Q: And the “pH Final” value [1, 15]?
A: 8.0

Q: What about the pH [2] of the same compound?
A: 4.77

Q: And the “% Carbonate Complexed or Dissolved” value [3]?
A: 38.4%

Q: What about the “Final Weight of BARACARB 5, g” value [3] of the same compound?
A: 1.54 g

Q: Which “compatibility with the formate brine” value ([4]; 20% v/v breaker, 11, 12 and 13 ppg potassium formate, precipitation of formate salts = incompatible) does the source give for `O=C(O)CN(CCN(CC(=O)O)CC(=O)O)CC(=O)O` [EDTA, reference compound] here?
A: only compatible with the formate brine at the lowest tested concentration

Q: And the “% Dissolved or precipitated out” value ([4]; 20% v/v breaker, 11 ppg Potassium Formate)?
A: 92%

Q: What about the “Amount of carbonate remaining” value ([4]; 20% v/v breaker, 11 ppg Potassium Formate, 2.5 g calcium carbonate, 16 hours, * = precipitation of formate salts) of the same compound?
A: 0.21 g

Q: What about the “% Dissolved or precipitated out” value ([4]; 20% v/v breaker, 12 ppg Potassium Formate) of the same compound?
A: 89%

Q: What about the “Amount of carbonate remaining, g” value ([4]; 20% v/v breaker, 12 ppg Potassium Formate, 2.5 g calcium carbonate, 16 hours, * = precipitation of formate salts) of the same compound?
A: 0.28* g

Q: What about the “% Dissolved or precipitated out” value ([4]; 20% v/v breaker, 13 ppg Potassium Formate) of the same compound?
A: 56%

Q: And the “Amount of carbonate remaining, g” value ([4]; 20% v/v breaker, 13 ppg Potassium Formate, 2.5 g calcium carbonate, 16 hours, * = precipitation of formate salts)?
A: 1.10* g

Q: And the “biodegradability (in words)” value ([5]; OECD 301D protocol)?
A: do not meet this standard

Q: What about the Biodegradability ([5]; Table 2) of the same compound?
A: Difficult

Q: What about the COD [6] of the same compound?
A: ~315 mg/g

Q: For `O=C(O)CN(CCOCCOCCN(CC(=O)O)CC(=O)O)CC(=O)O` [EGTA], which pH [2] is on record?
A: 11

Q: And the “% Carbonate Complexed or Dissolved” value [3]?
A: 9.28%

Q: What about the “Final Weight of BARACARB 5, g” value [3] of the same compound?
A: 2.32 g

Q: With `O=C(O)CN(CCO)CCN(CC(=O)O)CC(=O)O` [HEDTA] as the compound, how does the “biodegradability (in words)” value [5] read?
A: do not meet this standard

Q: For `O=C([O-])CC(NC(CC(=O)[O-])C(=O)[O-])C(=O)[O-].[Na+].[Na+].[Na+].[Na+]` (stereo not drawn) [Iminodisuccinate, sodium salt], which pH [2] is on record?
A: 11.3

Q: What about the “% Carbonate Complexed or Dissolved” value [3] of the same compound?
A: 5.2%

Q: And the “Final Weight of BARACARB 5, g” value [3]?
A: 2.37 g

Q: Which “After Static Aging” value [1, 7] does the source give for `Cl.NC(N)=O` [Synthetic acid (HCl salt of urea), HCl salt of urea] here?
A: Slight haze

Q: What about the “pH Final” value [1, 7] of the same compound?
A: 9.9

Q: And the “Initial Observation” value [1, 8]?
A: Clear, totally soluble

Q: What about the “After Static Aging” value [1, 8] of the same compound?
A: Very slight separation

Q: And the “pH Final” value [1, 8]?
A: 11.4

Q: What about the “After Static Aging” value [1, 9] of the same compound?
A: Hazy

Q: And the “pH Final” value [1, 9]?
A: 12.2

Q: And the “pH Final” value [1, 10]?
A: 7.0

Q: What about the “pH Final” value [1, 11] of the same compound?
A: 9.4

Q: And the “pH Final” value [1, 12]?
A: 11.0

Q: And the “pH Final” value [1, 14]?
A: 6.0

Q: And the “pH Final” value [1, 15]?
A: 7.0

Q: And the “pH Final” value ([1]; 20% by volume, potassium formate brine 13.0 lb/gal)?
A: 7.5

Q: And the “solubility / miscibility in the potassium formate brines” value ([1]; tested concentrations, 11.0-13.0 lb/gal brines)?
A: not soluble in the brines, but dispersed evenly

Q: What about the pH [2] of the same compound?
A: 0.88

Q: For `CC(=O)[O-].[Na+]` [sodium acetate], which “biodegradability (in words)” value ([5]; OECD 301D protocol) is on record?
A: readily biodegradable
